Results as given in patent US6706663B2, “Herbicidal 3-heterocyclic substituted benzisothiazole and benzisoxazole compounds” (Wyeth, priority 2000, dated 2004).

What was measured:
[1] = test system: ABUTH (Abutilon theophrasti); test: Postemergence herbicidal evaluation; assay type: in vivo, Medic.; settings: postemergence
Method in brief: (§1)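 Seedlings grown about two weeks in flats, sprayed, then kept under standard greenhouse care. Rated visually 4–5 weeks after treatment on a 0–9 scale (stand, vigour, malformation, size, chlorosis, overall appearance) relative to untreated control; repeat tests averaged.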

[2] = test system: AMBEL (Ambrosia artemisifolia); test: Postemergence herbicidal evaluation; assay type: in vivo, L.; settings: postemergence
Method in brief: as §1

[3] = test system: CASOB (Cassia obtusifolia); test: Postemergence herbicidal evaluation; assay type: in vivo, L.; settings: postemergence
Method in brief: as §1

[4] = test system: CHEAL (Chenopodium album); test: Postemergence herbicidal evaluation; assay type: in vivo, L.; settings: postemergence
Method in brief: as §1

[5] = test system: IPOHE (Ipomoea hederacea); test: Postemergence herbicidal evaluation; assay type: in vivo, (L.) Jacq.; settings: postemergence
Method in brief: as §1

[6] = test system: GLXMAW (Soybean, Williams); test: Postemergence herbicidal evaluation; assay type: in vivo, Glycine max, (L.) Merr. cv Williams; settings: postemergence
Method in brief: as §1

ORYSAT (Rice, Tebonnet) [7] = test: Postemergence herbicidal evaluation; assay type: in vivo, Oryza sativa, (L.) Tebonnet; settings: postemergence
Method in brief: as §1

[8] = test system: ABUTH (Abutilon theophrasti); test: Preemergence herbicidal evaluation; assay type: in vivo, Medic.; settings: rated 4-5 weeks after treatment
[9] = test system: AMBEL (Ambrosia artemisifolia); test: Preemergence herbicidal evaluation; assay type: in vivo, L.; settings: rated 4-5 weeks after treatment
Method in brief: (§2)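 Applied before emergence as an aqueous acetone spray over seeded soil. Read-out: 0–9 visual rating covering plant stand, vigor, size, chlorosis, malformation and overall appearance compared with control, taken 4–5 weeks after spraying.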

[10] = test system: CASOB (Cassia obtusifolia); test: Preemergence herbicidal evaluation; assay type: in vivo, L.; settings: rated 4-5 weeks after treatment
Method in brief: as §2

[11] = test system: CHEAL (Chenopodium album); test: Preemergence herbicidal evaluation; assay type: in vivo, L.; settings: rated 4-5 weeks after treatment
Method in brief: as §2

[12] = test system: IPOHE (Ipomoea hederacea); test: Preemergence herbicidal evaluation; assay type: in vivo, (L.) Jacq.; settings: rated 4-5 weeks after treatment
[13] = test system: ECHCG (Echinochloa crus-galli); test: Preemergence herbicidal evaluation; assay type: in vivo, (L.) Beau; settings: rated 4-5 weeks after treatment
Method in brief: as §2

SETVI (Setaria viridis) = test: Preemergence herbicidal evaluation; assay type: in vivo, (L.) Beau; settings: rated 4-5 weeks after treatment
Method in brief: as §2

[14] = test system: GLXMAW (Soybean, Williams); test: Preemergence herbicidal evaluation; assay type: in vivo, Glycine max, (L.) Merr. cv Williams; settings: rated 4-5 weeks after treatment
[15] = test system: TRZAWR (Wheat, Winter, cv Riband); test: Preemergence herbicidal evaluation; assay type: in vivo, Triticum aestivum; settings: rated 4-5 weeks after treatment
Method in brief: as §2

ZEAMX (Corn, Field) = test: Preemergence herbicidal evaluation; assay type: in vivo, Zea mays, L.; settings: rated 4-5 weeks after treatment
CYPIR (Cyperus iria) = test: Flooded paddy, preemergence weed control; assay type: in vivo; settings: rated 3-4 weeks after treatment, 0-9 rating scale
Method in brief: (§3)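 Plants were established from seed or propagating organs in flooded silt loam, with the water surface held 1.5 to 3 cm above the soil for the entire experiment. Injury was assessed visually against a control and given a 0-9 score.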

[16] = test system: MOOVA (Monochoria vaginalis); test: Flooded paddy, preemergence weed control; assay type: in vivo, Presl.; settings: rated 3-4 weeks after treatment, 0-9 rating scale
Method in brief: as §3

ORYSAT (Rice, Tebonnet) [17] = test: Flooded paddy, post-transplant rice tolerance; assay type: in vivo, Oryza sativa, (L.) Tebonnet; settings: flooded paddy, post-transplant rice, rated 3-4 weeks after treatment, 0-9 rating scale
Method in brief: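 Visual 0–9 injury rating against a control, covering stand, vigor, malformation, size, chlorosis and overall appearance. Treatment was post-transplant onto flooded containers (water 1.5–3 cm deep, silt loam) holding two ten-day-old cv. Tebonnet seedlings, maintained on greenhouse benches.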

Cn1c(C(F)(F)F)cc(=O)n(-c2ccc3snc(-c4nccs4)c3c2)c1=O [Compound 53, 1-methyl-3-[3-(2-thiazolyl)-1,2-benzisothiazol-5-yl]-6-(trifluoromethyl)uracil]
ABUTH herbicidal rating ([1]; rate 0.0320 kg/ha): 9.0
ABUTH herbicidal rating ([1]; rate 0.0620 kg/ha): 9.0
ABUTH herbicidal rating ([1]; rate 0.1250 kg/ha): 9.0
AMBEL herbicidal rating ([2]; rate 0.0320 kg/ha): 6.5
AMBEL herbicidal rating ([2]; rate 0.0620 kg/ha): 9.0
AMBEL herbicidal rating ([2]; rate 0.1250 kg/ha): 9.0
CASOB herbicidal rating ([3]; rate 0.0320 kg/ha): 2.0
CASOB herbicidal rating ([3]; rate 0.0620 kg/ha): 4.0
CASOB herbicidal rating ([3]; rate 0.1250 kg/ha): 3.0
CHEAL herbicidal rating ([4]; rate 0.0320 kg/ha): 4.5
CHEAL herbicidal rating ([4]; rate 0.0620 kg/ha): 7.0
CHEAL herbicidal rating ([4]; rate 0.1250 kg/ha): 9.0
IPOHE herbicidal rating ([5]; rate 0.0320 kg/ha): 8.0
IPOHE herbicidal rating ([5]; rate 0.0620 kg/ha): 9.0
IPOHE herbicidal rating ([5]; rate 0.1250 kg/ha): 9.0
GLXMAW herbicidal rating ([6]; rate 0.0320 kg/ha): 6.8
GLXMAW herbicidal rating ([6]; rate 0.0620 kg/ha): 8.3
GLXMAW herbicidal rating ([6]; rate 0.1250 kg/ha): 8.0
ORYSAT herbicidal rating (ORYSAT (Rice, Tebonnet) [7]; rate 0.0320 kg/ha): 3.0
ORYSAT herbicidal rating (ORYSAT (Rice, Tebonnet) [7]; rate 0.0620 kg/ha): 3.5
ORYSAT herbicidal rating (ORYSAT (Rice, Tebonnet) [7]; rate 0.1250 kg/ha): 3.0
Preemergence herbicidal rating ABUTH ([8]; Rate 0.0620 kg/ha): 5.0
Preemergence herbicidal rating ABUTH ([8]; Rate 0.1250 kg/ha): 7.5
Preemergence herbicidal rating ABUTH ([8]; Rate 0.2500 kg/ha): 9.0
Preemergence herbicidal rating AMBEL ([9]; Rate 0.0620 kg/ha): 4.0
Preemergence herbicidal rating AMBEL ([9]; Rate 0.1250 kg/ha): 8.0
Preemergence herbicidal rating AMBEL ([9]; Rate 0.2500 kg/ha): 8.5
Preemergence herbicidal rating CASOB ([10]; Rate 0.0620 kg/ha): 0.0
Preemergence herbicidal rating CASOB ([10]; Rate 0.1250 kg/ha): 1.0
Preemergence herbicidal rating CASOB ([10]; Rate 0.2500 kg/ha): 3.0
Preemergence herbicidal rating CHEAL ([11]; Rate 0.0620 kg/ha): 9.0
Preemergence herbicidal rating CHEAL ([11]; Rate 0.1250 kg/ha): 9.0
Preemergence herbicidal rating CHEAL ([11]; Rate 0.2500 kg/ha): 9.0
Preemergence herbicidal rating IPOHE ([12]; Rate 0.0620 kg/ha): 1.0
Preemergence herbicidal rating IPOHE ([12]; Rate 0.1250 kg/ha): 3.0
Preemergence herbicidal rating IPOHE ([12]; Rate 0.2500 kg/ha): 8.0
Preemergence herbicidal rating ECHCG ([13]; Rate 0.0620 kg/ha): 2.0
Preemergence herbicidal rating ECHCG ([13]; Rate 0.1250 kg/ha): 4.5
Preemergence herbicidal rating ECHCG ([13]; Rate 0.2500 kg/ha): 8.5
Preemergence herbicidal rating SETVI (SETVI (Setaria viridis); Rate 0.0620 kg/ha): 9.0
Preemergence herbicidal rating SETVI (SETVI (Setaria viridis); Rate 0.1250 kg/ha): 9.0
Preemergence herbicidal rating SETVI (SETVI (Setaria viridis); Rate 0.2500 kg/ha): 9.0
Preemergence herbicidal rating GLXMAW ([14]; Rate 0.0620 kg/ha): 1.0
Preemergence herbicidal rating GLXMAW ([14]; Rate 0.1250 kg/ha): 2.5
Preemergence herbicidal rating GLXMAW ([14]; Rate 0.2500 kg/ha): 6.5
Preemergence herbicidal rating TRZAWR ([15]; Rate 0.0620 kg/ha): 1.0
Preemergence herbicidal rating TRZAWR ([15]; Rate 0.1250 kg/ha): 3.5
Preemergence herbicidal rating TRZAWR ([15]; Rate 0.2500 kg/ha): 5.0
Preemergence herbicidal rating ZEAMX (ZEAMX (Corn, Field); Rate 0.0620 kg/ha): 4.0
Preemergence herbicidal rating ZEAMX (ZEAMX (Corn, Field); Rate 0.1250 kg/ha): 5.0
Preemergence herbicidal rating ZEAMX (ZEAMX (Corn, Field); Rate 0.2500 kg/ha): 7.0
herbicidal rating, CYPIR (CYPIR (Cyperus iria); rate 0.0080 kg/ha): 9.0
herbicidal rating, CYPIR (CYPIR (Cyperus iria); rate 0.0320 kg/ha): 8.3
herbicidal rating, CYPIR (CYPIR (Cyperus iria); rate 0.1250 kg/ha): 9.0
herbicidal rating, MOOVA ([16]; rate 0.0080 kg/ha): 9.0
herbicidal rating, MOOVA ([16]; rate 0.0320 kg/ha): 9.0
herbicidal rating, MOOVA ([16]; rate 0.1250 kg/ha): 9.0
herbicidal rating, ORYSAT (rice tolerance) (ORYSAT (Rice, Tebonnet) [17]; rate 0.0080 kg/ha): 0.5
herbicidal rating, ORYSAT (rice tolerance) (ORYSAT (Rice, Tebonnet) [17]; rate 0.0320 kg/ha): 2.7
herbicidal rating, ORYSAT (rice tolerance) (ORYSAT (Rice, Tebonnet) [17]; rate 0.1250 kg/ha): 5.0
